Several values for one entry are separate records, joined by “and”; a condition that tells them apart may be missing. Equal entries are not always repeated. Ends that are not written are not given here.
Legend:
[1] = molecular target: Cathepsin B (Homo sapiens, UniProt P07858); assay: Cathepsin B degradation of the linker (fluorescence activation); assay type: biochemical; conditions: after 22 h of incubation; Cathepsin B 1.5 U, sodium acetate buffer pH 5.5
Description: 0.5 mg polymer was dissolved in 1 ml sodium acetate buffer (pH=5.5). Cathepsin B (1.5 U) was added to the solution and incubate for 24 hours at 370 C. The fluorescence intensity (excitation 650 nm & 690 nm, emission range 820 nm) was measured every 30 minutes.
The effects of IR-783-S-Ph-COOH loading on CB mediated fluorescence activation was tested.

[2] = system: T1, P-(GGFLGK-IR783)7.5%
T1 sequence: GGFLGK

[3] = system: T2, P-(GGFLGK-IR783)5%
T2 sequence: GGFLGK

[4] = system: T3, P-(GGFLGK-IR783)2.5%
T3 sequence: GGFLGK

[5] = Emission spectrum and fluorescence intensity of NIR dyes; assay type: physicochemical; conditions: excitation at 650 nm
Description: FIG. 1 depicts the emission spectrum for NIR Dyes (ICG, IR-783, and 783-S-Ph-COOH) following excitation at 650 nm (A) and 690 nm (B).
Fluorescence intensity of the NIR dyes was evaluated as well, following excitation at 650 nm (FIG. 2A).

[6] = system: SW-480 cells; assay: Imaging of rectally implanted SW-480 tumors in female mice; assay type: in vivo
Description: The ability of the probe to detect solid tumors in female mice bearing rectally tumors injected with SW-480 cells was tested. The mice were injected with 0.2 mg/200 μl of P-(GGFLGK (SEQ ID NO: 11)-IR783)2.5% and the whole body was imaged 4 and 24 h post injection. […] However images from excised organs taken 24 h post injection indicated a 4-fold increase in the average fluorescence efficiency between colon and tumor tissue (FIG. 8A).

[7] = system: SW-480 cells; assay: Imaging of orthotopically implanted SW-480 colon tumors in nu/nu athymic mice; assay type: in vivo; conditions: for time post injection of accumulation in tumor area: 2 mg i.v., orthotopic SW-480 tumors
Description: Three types of mouse models were employed to test the ability of the probes to detect solid tumors in the GI tract.
Nu/nu athymic mice were injected orthotopically into the descending colon of female with SW-480 cells. After tumors reached ˜0.5 cm in diameter, mice were injected i.v. with 2 mg of IR-783 bearing polymeric probe. The results in the orthotopically implanted tumors confirm the accumulation of both P-(GGFLGK (SEQ ID NO: 11)-IR783)2.5% and P-(GGFLGK (SEQ ID NO: 11)-IR783)7.5% polymeric probes in tumor area about 4 h post injection and retention at the tumor site for at least 48 h.
Biodistribution analysis indicated the presence of the probe in the tumor, kidneys, galbladder and the urine. The T/B ratio following whole body imaging (WBI) was 2.4 in mice treated with P-(GGFLGK (SEQ ID NO: 11)-IR783)7.5%, 4 h post injection (FIG. 6). […] The calculated ratio of the average fluorescence efficiency between colon and tumor tissue was ˜9 (FIG. 7).

[8] = system: HT-29 cells; assay: Imaging of rectal HT-29 tumors in female mice; assay type: in vivo
Description: The ability of the probe to detect solid tumors in female mice bearing rectal tumors introduced via injection with HT-29 cells was also evaluated. After tumors reached ˜0.5 cm in diameter, mice were injected i.v. with 2 mg of IR-783 bearing polymeric probe. Mice were kept in metabolic cages throughout the experiment (48 h). The mice were injected with 1 mg/200 μl of P-(GGFLGK (SEQ ID NO: 11)-IR783)7.5% (CB cleavable linker) and the whole body was imaged 4, 24 and 48 h post injection. […] In images from excised organs taken 24 h post injection indicated only 1.5-fold increase in the average fluorescence efficiency between colon and tumor tissue (T/C) (1.64 and 1.3-fold of increase, FIG. 9b and FIG. 10b, respectively), due to the high background fluorescence along the gastrointestinal tract (stomach, colon and […]), even though treated in metabolic cages. Once the tumor to heart ratio (T/H) was measured, an increased of about 8-10-fold was calculated. When mice were injected with the polymeric probe with non-cleavable linker P-(AP-IR783)7.5%, and the whole body was imaged 4 post injection, the T/B ratio was 1.3.

[9] = Effect of dye loading on fluorescence intensity and quenching of HPMA copolymer-IR783 conjugates; assay type: physicochemical; conditions: dissolved in DDW; Ex: 690 nm, Em: 820 nm
Description: HPMA conjugates of various IR-783-S-Ph-COOH loadings were dissolved in DDW and their fluorescence intensity (Ex: 690 nm, Em: 820 nm). […] These observations confirm the decrease in fluorescence intensity with increasing the loading of IR-783-S-Ph-COOH on p-HPMA copolymer due to the quenching of fluorescent signal.
The effect of NIR813 loading on p-HPMA-NIR813 quenching efficiency is shown in FIG. 3 and a complete quenching was achieved when the loading level of IR-783 on P—HPMA-IR-783 was 15%.

For “P-(GGFLGK-IR783)5%: HPMA copolymer bearing IR-783-S-Ph-COOH via degradable GGFLGK linker, 5% dye loading (not fully specified; also: conjugated to HPMA copolymer via GGFLGK linker)”, the “increase in fluorescence intensity following CB degradation” value [1] was 3.6 fold.

For Cathepsin B, the “increase in the (fluorescence) intensity after 22 h of incubation with Cathepsin B” value [2] was 4.9-fold, the “increase in the (fluorescence) intensity after 22 h of incubation with Cathepsin B” value [3] was 3.6-fold and the “increase in signal intensity over time with Cathepsin B” value [4] was “only 2-fold increase in signal intensity over time”.

CC1(C)C(/C=C/C=C/C=C/C=C2\N(CCCCS(=O)(=O)O)c3ccc4ccccc4c3C2(C)C)=[N+](CCCCS(=O)(=O)[O-])c2ccc3ccccc3c21 [ICG, indocyanine green] gave a maximal emission wavelength [5] of 810 nm.

CC1(C)C(=CC=C2CCCC(C=CC3=[N+](CCCCS(=O)(=O)O)c4ccccc4C3(C)C)=C2Cl)N(CCCCS(=O)(=O)O)c2ccccc21.[OH-] [IR-783, 2-[2-[2-Chloro-3-[2-[1,3-dihydro-3,3-dimethyl-1-(4-sulfobutyl)-2H-indol-2-ylidene]-ethylidene]-1-cyclohexen-1-yl]-ethenyl]-3,3-dimethyl-1-(4-sulfobutyl)-3H-indolium hydroxide] showed a maximal emission wavelength [5] of 800 nm.

For “P-(GGFLGK-IR783)7.5%: HPMA copolymer bearing IR-783-S-Ph-COOH via degradable (CB cleavable) GGFLGK linker, 7.5% dye loading (not fully specified; also: conjugated to HPMA copolymer via GGFLGK linker)”, the “ratio in the average fluorescence efficiency between colon and tumor tissue” value ([6]; excised tumor harvested 48 h post injection, FIG. 8b) was roughly 4, the “tumor accumulation with time” value ([6]; whole body imaging) was “slight increase” and the “time post injection of accumulation in tumor area” value [7] was “about 4 h”. The “T/B ratio following whole body imaging (WBI)” value ([7]; 4 h post injection, 2 mg, FIG. 6) was 2.4, the “increase in fluorescence intensity following CB degradation” value [1] was 4.9 fold and the “T/B ratio in whole body imaging, 4 versus 24 h post injection” value ([8]; 1 mg/200 μl, HT-29 rectal model) was “not significantly different”. The “increase in the average fluorescence efficiency between colon and tumor tissue (T/C)” value ([8]; excised organs taken 24 h post injection, 1 mg/200 μl) was 1.5 fold, the “tumor to heart ratio (T/H)” value ([8]; excised organs, 1 mg/200 μl) was 8-10 fold and the “increase in the average fluorescence efficiency between colon and tumor tissue (T/C), single figures” value ([8]; excised organs, FIG. 9b and FIG. 10b, respectively, listed as P-(GGFLGK (SEQ ID NO: 11)-IR783)7.5%) was 1.64 fold and 1.3 fold.

For “P-(GGFLGK-IR783)2.5%: HPMA copolymer bearing IR-783-S-Ph-COOH via degradable GGFLGK linker, 2.5 mol % dye loading (not fully specified (N-terminus); also: IR-783-S-Ph-COOH dye attached, site not given here)”, the “T/B ratio in whole body imaging, 4 versus 24 h post injection” value ([6]; 0.2 mg/200 μl) was “not significantly different”, the “increase in the average fluorescence efficiency between colon and tumor tissue” value ([6]; excised organs 24 h post injection, 0.2 mg/200 μl, FIG. 8A) was 4 fold and the “fluorescence intensity at λ=820 nm compared with copolymers of other dye loading” value [9] was “highest fluorescence intensity”. The “time post injection of accumulation in tumor area” value [7] was “about 4 h”, the “calculated ratio of the average fluorescence efficiency between colon and tumor tissue” value ([7]; ex vivo, 48 h post injection, FIG. 7) was roughly 9 and the “Biodistribution analysis: accumulation” value ([7]; mice sacrificed 48 h post injection) was “significant accumulation in the tumor, kidneys and gallbladder”. The “increase in fluorescence intensity following CB degradation” value [1] was 2 fold.

With CC1(C)C(/C=C/C2=C(Sc3ccc(C(=O)O)cc3)C(=C/C=C3\N(CCCCS(=O)(=O)O)c4ccccc4C3(C)C)/CCC2)=[N+](CCCCS(=O)(=O)[O-])c2ccccc21 [IR-783-S-Ph-COOH] the maximal emission wavelength [5] was 830 nm.

— patent publication US20130142734A1, “TARGETED DELIVERY SYSTEMS FOR DIAGNOSTIC APPLICATIONS” (priority 2010, published 2013)
